Experimental data taken from PubChem BioAssay AID2060496 (Molecular Pharmacology Branch, DTP, NCI, 2025).
Where “and” joins values, the source holds several entries; their conditions need not be identical. Equal entries are not always repeated. One block for each molecule: values may come before it.

System: 276233-004-R-J1-PDC complex spheroid viability
Assay: Anticancer human tumor 276233-004-R-J1-PDC patient-derived colon adenocarcinoma cell line growth inhibition [GQUAD]
Conditions: for viability, T/C: stronger effect = lower value
Source text: DNA G-quadruplex Stabilizer Agents in Combinations in Complex Spheroids
A high-throughput screen of multi-cell type tumor spheroids was designed to identify active combinations of DNA G-quadruplex stabilizer agents and targeted small molecules. Complex spheroids include a stromal component modeled by human endothelial cells (HUVEC) and fibroblasts modeled by human mesenchymal stem cells (MSCs). The concentration ranges selected for each drug and investigational agent were based upon clinically achievable concentrations if the clinical Cmax of the agent was known.
Compounds. The drugs and investigational agents: pidnarulex (CX-5461; NSC782164), APTO-253 (NSC789042), BRACO-19 (NSC847499), peposertib (NSC802822), ceralasertib (NSC780249), elimusertib (NSC800525), camonsertib (NSC841442), AZD-1390 (NSC803789), olaparib (NSC753686), talazoparib (NSC767125), ART-558 (NSC835418), sotorasib (NSC818433), MRTX-1133 (NSC836407), SN-38 (NSC673596), topotecan (NSC609699), etoposide (NSC141540), doxorubicin (NSC123127), gemcitabine (NSC613327), 5-fluorouracil (NSC19893), paclitaxel (NSC125973), vemurafenib (NSC761431), panobinostat (NSC761190), R-306465 (JNJ-16241199; NSC773264), adavosertib (NSC754352), TP-3654 (NSC805149), carboplatin (NSC241240), KSQ-4279 (NSC840948), and staurosporine (NSC755774) were obtained from the National Cancer Institute (NCI) Developmental Therapeutics Program Chemical Repository (34). The FDA-approved anticancer drug set is available from the NCI Developmental Therapeutics Program. […] The stock solutions were prepared in dimethyl sulfoxide (DMSO, Sigma-Aldrich, St. Louis, MO, cat. D2650) at 800-fold the tested concentration and stored at -70 degrees C prior to their use. All drugs and investigational agents were tested over a range starting from a high concentration at or near the clinical Cmax and decreasing in half-log increments. If the clinical Cmax for an agent had not been determined, the highest concentration tested was 10 microM.
2.3 Cell Culture. All cells were maintained in an incubator at 37 degrees C and 5% CO2 with 95% humidity. The PDC lines were cultured according to standard operating procedures established by the NCI PDMR. All PDCs were thawed and cultured in Matrigel-coated flasks prepared with a working solution of 1X Ham's F-12 nutrient mix, without supplementation (Invitrogen, cat. 11765054), 100 U/mL penicillin-streptomycin (Invitrogen, cat. 15140122), and 2.5% Matrigel (Corning Inc., cat. 354248) for the first three passages. The 857933-349-R-J2-PDC line was cultured in 6C/Colon 1B media, which includes advanced DMEM/F-12 (Thermo Fisher Scientific, cat. 12634028), 10 mM HEPES (Thermo Fisher Scientific, cat. 15630080), 1X GlutaMAX supplement (Thermo Fisher Scientific, cat. 35050061), 0.1 mg/mL primocin (InvivoGen, cat. ant-pm-2), 10% defined fetal bovine serum, heat inactivated (HyClone Laboratories Inc., cat. SH30070.03HI), 50% L-WRN conditioned media (ATCC, cat. CRL-3276), 1.25 mM N-Acetyl-L-cysteine (Sigma-Aldrich, cat. A9165), 10 mM nicotinamide (Sigma-Aldrich, cat. N0636), 1X B-27 supplement (Thermo Fisher Scientific, cat. 17504044), 1X N-2 supplement (Thermo Fisher Scientific, cat. 17502048), 10 microM Y-27632 dihydrochloride (Tocris Bioscience, cat. 1254), and 50 ng/mL human EGF recombinant protein (Thermo Fisher Scientific, cat. PHG0311). The 485176-168-R4-J1-PDC line was cultured in Panc media, which includes all 6C/Colon 1B media components plus 100 ng/mL human FGF-10 (Thermo Fisher Scientific, cat. 100-26), 500 nM SB-431542 (Selleckchem, cat. S1067), and gastrin (Tocris, cat. 3006).
[…]
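Note: spheroids exposed to drugs for seven days.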
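Throughout, for viability, T/C: 100% = DMSO vehicle control viability.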

IC50 (curve of compound): > 10 µM
SMILES: Nc1ccn(C2OC(CO)C(O)C2(F)F)c(=O)n1 (stereo not drawn)
viability, T/C (compound 0.0316 µM): 86.2% and 88.9% and 100%
viability, T/C (compound 0.1 µM): 76.2% and 97% and 92.5%
viability, T/C (compound 0.316 µM): 76.6% and 97.1% and 85.7%
viability, T/C (compound 1 µM): 69% and 83.3% and 72.7%
viability, T/C (compound 3.16 µM): 83.3% and 79% and 97.7%
viability, T/C (compound 10 µM): 71.6% and 68.4% and 75.5%

SMILES: COc1cccc2c1C(=O)c1c(O)c3c(c(O)c1C2=O)CC(O)(C(=O)CO)CC3OC1CC(N)C(O)C(C)O1 (stereo not drawn) + CN(C)c1ccc(Nc2c3ccc(NC(=O)CCN4CCCC4)cc3nc3cc(NC(=O)CCN4CCCC4)ccc23)cc1
IC50 (curve of first compound, second compound 0.0316 µM): > 10 µM
IC50 (curve of first compound, second compound 0.1 µM): > 10 µM
IC50 (curve of first compound, second compound 0.316 µM): > 10 µM
IC50 (curve of first compound, second compound 1 µM): > 10 µM
IC50 (curve of first compound, second compound 3.16 µM): < 0.0316 µM
IC50 (curve of first compound, second compound 10 µM): > 10 µM
viability, T/C (second compound 0.0316 µM, first compound 0.0316 µM): 88%
viability, T/C (second compound 0.0316 µM, first compound 0.1 µM): 94.7%
viability, T/C (second compound 0.0316 µM, first compound 0.316 µM): 77.5%
viability, T/C (second compound 0.0316 µM, first compound 1 µM): 61.7%
viability, T/C (second compound 0.0316 µM, first compound 3.16 µM): 43%
viability, T/C (second compound 0.0316 µM, first compound 10 µM): 66.7%
viability, T/C (second compound 0.1 µM, first compound 0.0316 µM): 102%
viability, T/C (second compound 0.1 µM, first compound 0.1 µM): 83.8%
viability, T/C (second compound 0.1 µM, first compound 0.316 µM): 72.8%
viability, T/C (second compound 0.1 µM, first compound 1 µM): 74.8%
viability, T/C (second compound 0.1 µM, first compound 3.16 µM): 60.6%
viability, T/C (second compound 0.1 µM, first compound 10 µM): 76.7%
viability, T/C (second compound 0.316 µM, first compound 0.0316 µM): 80.6%
viability, T/C (second compound 0.316 µM, first compound 0.1 µM): 68.4%
viability, T/C (second compound 0.316 µM, first compound 0.316 µM): 67.9%
viability, T/C (second compound 0.316 µM, first compound 1 µM): 40.8%
viability, T/C (second compound 0.316 µM, first compound 3.16 µM): 63.1%
viability, T/C (second compound 0.316 µM, first compound 10 µM): 54.4%
viability, T/C (second compound 1 µM, first compound 0.0316 µM): 55.8%
viability, T/C (second compound 1 µM, first compound 0.1 µM): 47%
viability, T/C (second compound 1 µM, first compound 0.316 µM): 53.2%
viability, T/C (second compound 1 µM, first compound 1 µM): 52.3%
viability, T/C (second compound 1 µM, first compound 3.16 µM): 63.5%
viability, T/C (second compound 1 µM, first compound 10 µM): 52.8%
viability, T/C (second compound 3.16 µM, first compound 0.0316 µM): 49.6%
viability, T/C (second compound 3.16 µM, first compound 0.1 µM): 49.3%
viability, T/C (second compound 3.16 µM, first compound 0.316 µM): 56.8%
viability, T/C (second compound 3.16 µM, first compound 1 µM): 56.4%
viability, T/C (second compound 3.16 µM, first compound 3.16 µM): 59.4%
viability, T/C (second compound 3.16 µM, first compound 10 µM): 53.7%
viability, T/C (second compound 10 µM, first compound 0.0316 µM): 48.6%
viability, T/C (second compound 10 µM, first compound 0.1 µM): 51.5%
viability, T/C (second compound 10 µM, first compound 0.316 µM): 55.7%
viability, T/C (second compound 10 µM, first compound 1 µM): 62.6%
viability, T/C (second compound 10 µM, first compound 3.16 µM): 50.5%
viability, T/C (second compound 10 µM, first compound 10 µM): 43.5%

IC50 (curve of compound): > 10 µM
SMILES: CC(C)n1c(=O)n(C)c2cnc3cc(F)c(-c4ccc(OCCCN5CCCCC5)nc4)cc3c21
viability, T/C (compound 0.0316 µM): 91.9% and 80.4% and 93.2%
viability, T/C (compound 0.1 µM): 86.8% and 101% and 78.8%
viability, T/C (compound 0.316 µM): 107% and 86.6% and 73.3%
viability, T/C (compound 1 µM): 99.4% and 85.9% and 73.2%
viability, T/C (compound 3.16 µM): 108% and 84.9% and 95.3%
viability, T/C (compound 10 µM): 86.9% and 68.8% and 77%

IC50 (curve of compound): > 10 µM and 3.14 µM and 2.93 µM
SMILES: C#Cc1c(F)ccc2cc(O)cc(-c3ncc4c(N5CC6CCC(C5)N6)nc(OCC56CCCN5CC(F)C6)nc4c3F)c12 (stereo not drawn)
viability, T/C (compound 0.0316 µM): 92.7% and 70.8% and 78.7%
viability, T/C (compound 0.1 µM): 73.1% and 96.4% and 89.9%
viability, T/C (compound 0.316 µM): 66.8% and 78.3% and 71.8%
viability, T/C (compound 1 µM): 87.9% and 83.5% and 69.9%
viability, T/C (compound 3.16 µM): 86.9% and 49.7% and 45.9%
viability, T/C (compound 10 µM): 68.2% and 36.4% and 44.5%
